According to PMC5870190, “A three-in-one-bullet for oesophageal cancer: replication fork collapse, spindle attachment failure and enhanced radiosensitivity generated by a ruthenium(II) metallo-intercalator” (Chemical Science, 2017):

Columns and labels:
[1] = tested on: OE21 cells; experiment: Quantification of aberrant mitoses (CLSM); format: cell-based, human; details: OE21, IC50 concentration, 24 h
Protocol: Microscopy and immunofluorescence. Cells were seeded on ibidi 35 mm µ-dishes (Thistle Scientific), allowed to adhere for 24 h and treated as stated in the main text. Cell media was removed, cells washed with PBS and fixed with formaldehyde (4%, 10 mins). Cells were permeablised with Triton (0.5% in PBS, 5 mins) and washed with PBS. Samples were blocked with BSA (3% in PBS-T) for 1 h before incubation with primary antibody (either anti-α-tubulin or anti-γ H2AX, 1/500 dilution) in BSA (3% in PBS-T) for 1 h. Samples were washed 3x in PBS-T and incubated with Alexa Fluor-conjugated secondary antibodies (3% in PBS-T, 1 h, 1/250 dilution). After further washing (3x5 min PBS-T) samples were co-stained with DAPI (5 ng/ml, 2 min), fresh PBS added and visualised by confocal microscopy. Samples were visualised using a Zeiss LSM 780 or LSM 710 inverted confocal microscope and EC Plan-Neofluar 40x/1.30 Oil objectives. […]
(§1) For the determination of mutation induction, from the untreated and each treated condition, 2x10^5 cells were plated in 10 x 100 mm dishes in selective media (regular media

[2] = tested on: OE21 human oesophageal squamous cell carcinoma; experiment: MTT assay, OE21 cells; format: cell-based; details: for IC50: MTT
Protocol: (§2) MTT assay. OE21, FLO-1 or hSAEC1-KT cells were seeded in 96 well plates at 20,000 cells/well (for 24 h treatment) or 10,000 cells/well (for 72 h treatment) and allowed to adhere for 24 h before treatment. OE33 cells were seeded in 48 well plates at 40,000 cells/well (24 h treatment) or 20,000 cells/well (72 h treatment). Cancer cell lines were treated with chemicals dissolved in RPMI media for consistency. After incubation, 0.5 mg/ml MTT (thiazolyl blue tetrazolium bromide) dissolved in serum-free medium was added for 60 minutes and the formazan product eluted using acidified isopropanol.
(§3) The absorbance at 540 nm was quantified by plate reader (reference wavelength 650 nm). The metabolic activity of the cell population was determined as a percentage of a negative (solvent) control. […]
as §1

[3] = tested on: OE33 human oesophageal adenocarcinoma; experiment: MTT assay, OE33 cells; format: cell-based
Protocol: as §2, §3, §1

[4] = tested on: FLO-1 human oesophageal adenocarcinoma; experiment: MTT assay, FLO-1 cells; format: cell-based
Protocol: as §2, §3, §1

[5] = tested on: OE21 cells; experiment: Clonogenic survival assay with IR, OE21; format: cell-based, human; details: Ru1 2 μM or Cis 500 nM for 24 h before IR
Protocol: Clonogenic survival assay. OE21, OE33 or FLO1 cells were treated with 2 µM Ru1 for 24 h before irradiation with 0-8 Gy using a 137Cs γ-irradiator (IBL637, CIS Bio Int.; dose rate = 0.809 Gy min−1). 1 h after irradiation, cells were detached using Trypsin and re-seeded in 6 well plates at a density of 300 – 20,000 cells/well in triplicate in an incrementally greater number of cells with increasing IR dose to ensure adequate colony formation. Cells were incubated for 7–14 days after re-seeding to allow colony formation before being fixed with 10% methanol, 10% acetic acid and stained with 0.4% methylene blue. OE33 cells required an additional formaldehyde fixation (4% in PBS, 5 mins) step before the addition of methylene blue solution or colony detachment occurred. Colonies containing 50 cells or greater were counted using a Gelcount instrument and accompanying software (Oxford Optronix). Plating efficiencies were determined for each treatment condition and normalised to an untreated control to provide the surviving fraction (S. F.). S.F. versus radiation dose curves were plotted in GraphPad Prism and fit using a second order polynomial function (R2 values > 0.99). Dose modifying factors (DMF) at a SF=0.1 were calculated using the equation: Dose modifying factor (DMF) = IR dose to give S.F. 0.1/IR dose plus compound to give S.F.0.1. […]

[Ru(phen)2(tpphz)]^2+ [Ru1]
mitotic aberrations, share of total cell population [1]: ~8% | IC50 ([2]; OE21, 24 h constant exposure): 21 ± 4.2 µM | IC50 ([2]; OE21, 72 h constant exposure): 2.9 ± 1.5 µM | greater potency than cisplatin ([2]; OE21, 72 h incubation): two-fold | IC50 ([3]; OE33, 24 h constant exposure): 44.5 ± 3.5 µM | IC50 ([3]; OE33, 72 h constant exposure): 27 ± 2.8 µM | IC50 ([4]; FLO1, 24 h constant exposure): 42 ± 8 µM | IC50 ([4]; FLO1, 72 h constant exposure): 11.5 ± 2.1 µM | S.F. ([5]; OE21, IR 0 Gy): 1.062 | S.F. ([5]; OE21, IR 2 Gy): 0.801 | S.F. ([5]; OE21, IR 4 Gy): 0.410 | S.F. ([5]; OE21, IR 6 Gy): 0.152 | S.F. ([5]; OE21, IR 8 Gy): 0.062
